Source: patent US20190358247A1 (The Medical College of Wisconsin, Inc., priority 2016, published 2019)
“And” between values parts separate entries of the source, which are not always exact repeats. Identical values can stand only once.

Columns and labels:
MiaPaCa-2 cells = assay: IncuCyte label-free cell confluence proliferation assay; format: cell-based, human; settings: PDAC / MiaPaCa-2, from two independent cell growth assays
Procedure: Cell proliferation was measured using a label-free, non-invasive cellular confluence assay employing the IncuCyte™ Live-Cell Imaging Analyzer (Essen Bioscience). This system provides real-time cellular confluence data based on segmentation of high definition phase contrast images. […] MiaPaCa2 cells were treated with Met (1 and 2 mM) or Mito-Met-C10 (1-2 μM).
IncuCyte Analyzer-real time measurement of cell proliferation. The cell proliferation was measured using a label-free, noninvasive cellular confluence assay by IncuCyte Live-Cell Imaging Systems (Essen Bioscience, Ann Arbor, Mich., USA; IncuCyte FLR). This system enables collection of live cell images at 2 h intervals over several days. The IncuCyte Analyzer provides real-time cellular confluence data based on segmentation of high-definition phase-contrast images. The cell proliferation is expressed as an increase in percentage of cell confluence.

[1] = Tissue accumulation in FC1242-luc orthotopic mice; format: in vivo; settings: 1 mg/kg daily for two weeks; liver, kidney, spleen, tumor
Procedure: FIG. 19. Tissue accumulation of Mito-Met in in vivo FC1242-luc orthotopic mouse model. FC1242-luc orthotopic mice treated with Mito-Met10 (1 mg/kg) daily for 2 weeks. Tissue harvesting and extractions were performed 3 days after the last treatment. Quantitative data on concentrations of Mito-Met after normalization to tissue wet weight are represented as mean±SD, n=5.

FC1242-luc = assay: Orthotopic syngeneic FC1242-luc engraftment model, tumor growth; format: in vivo, C57BL/6 mice; settings: for in vivo tumor growth compared with Met: 1 mg/kg daily i.p.
From the text: In vivo studies and bioluminescence imaging.

Br.N=C(N)NC(=N)NCCCCCCCCCC[P+](c1ccccc1)(c1ccccc1)c1ccccc1 [Mito-Met10]
fold more effective than metformin in inhibiting cell proliferation (MiaPaCa-2 cells): ~1,000 fold and > 1,000 fold
fold more effective than metformin in inhibiting cell proliferation (MiaPaCa-2 cells; listed as mito-met-C10): ~1,000 fold
tissue accumulation [1]: increased accumulation
in vivo tumor growth compared with Met (FC1242-luc): considerably more potent than Met
in vivo tumor growth compared with Met (FC1242-luc; listed as Mito-Met): considerably more effective than Met
therapeutic index relative to Met (FC1242-luc; mouse, in vivo): ~1,000 fold
times more effective than Met in abrogating PDAC tumor growth (FC1242-luc; mouse, in vivo): at least 100 times
